Source: patent publication US20090215171A1, “PELCAM-1-related molecules compositions kit of parts and associated methods of use” (The Johns Hopkins University, priority 2004, published 2009)

Tested on: HUVECs
Assay: Measurement of intracellular free [Ca2+]i in HUVEC suspension (Fura-2/AM, thrombin stimulation)
Type: cell-based, human
Conditions: rest HUVEC; 16 h treatment; Ab 0.4 and 1.6 μg/mL, peptides 15 and 30 μg/mL; thrombin 1 U/ml
Protocol: HUVECs were cultured in EGM™ supplied with 10% of fetal bovine serum (FBS, dialyzed) to early confluence. HUVECs (passage number 3-4) were pre-incubated with and without TNF-α (5 ng/mL, 4 hour), next the cells were subjected to various doses of the JHS-7 Ab, accompanied by the pAb-C (c-terminal anti-PECAM-1 antibody) and a rabbit IgG (both served as controls). In addition, HUVECs were also incubated with a various doses of the JHS-7 peptide and a scrambled peptide served as its control. The treatments were carried out in EGM™ supplied with 2% of FBS for 16 hours. […] All above-mentioned peptides and antibodies were tested endotoxin free with an endotoxin detection kit (Sigma E-TOXATE®). Cell viability was determined with trypan blue exclusion assay after the incubation and no cytotoxic effect was observed under the Applicants' experimental conditions. HUVEC monolayers, following the incubation, were subjected to the following assays simultaneously: 1) monocyte TEM assay; 2) [Ca^2+]i measurement. […] Experimental results were calculated as average levels and plotted as % controls.
[Ca^2+]i measurement was conducted as described previously with slight modification. […] Fluorescence was recorded using a spectrofluorometer (Perkin Elmer LS-50B), with excitation and emission wavelengths of 340 and 505 nm, respectively. […]

scrambled peptide: control peptide of identical amino acid composition but different sequence TEDVLVPQNKSDNKATNNAFPNVSYVDEEDC (SEQ ID NO: 4) (Nonsense peptide with no known matches.)
thrombin stimulatable [Ca2+]i: no effect
